# Data from patent US20260048051A1, “TREATMENT OF INFLAMMATORY BOWEL DISEASE” (Atomwise Inc., priority 2024, published 2026).
# Read-outs that look alike come from different tables or passages of the source.
# How the values were obtained:
# [1] = biological target: T1, TYK2-JH2 (Homo sapiens, UniProt P29597); assay: TYK2-JH2 HTRF binding assay (ligand efficiency); settings: calculated from binding-assay IC50 (Equation 1)
# T1 construct: TYK JH2 enzyme mix (ChemPartner: CP20210818A-BV); purchased ChemPartner CP20210818A-BV
# T1 sequence (P29597 589-875 limits assumed): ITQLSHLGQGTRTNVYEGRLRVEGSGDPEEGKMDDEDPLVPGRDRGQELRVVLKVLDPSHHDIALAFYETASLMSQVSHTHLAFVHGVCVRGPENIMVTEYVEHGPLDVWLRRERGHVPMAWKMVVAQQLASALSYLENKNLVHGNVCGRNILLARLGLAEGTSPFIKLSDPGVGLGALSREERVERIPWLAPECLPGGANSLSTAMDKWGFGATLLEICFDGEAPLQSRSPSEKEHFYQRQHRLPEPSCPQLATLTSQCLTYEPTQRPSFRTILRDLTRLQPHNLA
# Outline: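 HTRF competition binding: 0.5 nM His-tagged TYK2 JH2 preincubated 10 min at room temperature with compound (final 0.1 to 0.000005 μM), then 35 nM tracer and anti-6HIS Tb cryptate added for 60 min. Buffer 20 mM HEPES pH 7.5, 10 mM MgCl2, 0.01% Triton X-100, 1 mM DTT; TR-FRET Ex340/Em495/520. Ligand efficiency derived from binding IC50.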
# [2] = Mouse plasma pharmacokinetics, PO 5 mg/kg; type: in vivo
# Method: The following example describes the methods used to evaluate the pharmacokinetics of TYK2 inhibitors in vivo following dosing of a compound of the invention.
# The pharmacokinetics of test compounds were evaluated in either male CD-1 mice or male C57BL/6 mice when administered by oral gavage and IV bolus injection. The animals were allowed free access to food and water before administration. The plasma samples were analyzed by LC-MS/MS and the concentration of test compound at each time point was determined by linear regression. Pharmacokinetic parameters were calculated from the plasma concentrations by non-compartmental modeling using WinNonlin 8.2.
# Oral composition. To prepare a pharmaceutical composition for oral delivery, the test articles described herein were dissolved in DMSO and then mixed with necessary volume of PEG400 followed by […] in water or 50% Kolliphor HS 15 in saline to provide the final concentrations of 0.5 mg/mL or 1 mg/mL (Table 8). The resultant mixtures were suitable for oral administration.
# The PK parameters measured in mouse plasma after treatment with TYK2 inhibitor compounds via PO (oral administration) at 5 mg/kg are summarized below in Tables 9-11.
# [3] = tested on: IFNα/pSTAT5; assay: Whole blood potency (IFNα/pSTAT5), mouse; type: cell-based; settings: read-out: Cellular Whole Blood Potency IC50 (IFNα/pSTAT5), Mouse
# Description: Exemplary compounds of the invention, compounds 1 and 2 were compared in this assay.
# [4] = tested on: anti-CD40-induced inflammatory bowel disease (IBD); assay: Anti-CD40-induced mouse model of inflammatory bowel disease (IBD); type: in vivo, RAGN12 mice; settings: for colon histopathology scores / colon weight-to-length ratio: 7-day anti-CD40 IBD model
# Method: This study was conducted in accordance with the Inotiv Boulder test facility standard operating procedures (SOPs), the World Health Organization Quality Practices in Basic Biomedical Research guidelines, and in compliance with all state and federal regulations, including USDA Animal Welfare Act 9 CFR Parts 1-3. Federal Register 39129, Jul. 22, 1993. This study was conducted in accordance with The Guide for the Care & Use of Laboratory Animals (8th Edition) and therefore in accordance with all Inotiv Boulder IACUC approved policies.
# Prior to the start of the study, 6-7 week old, RAGN12 mice (Taconics) were acclimated for approximately 4 days. On study day −1, mice were weighed and randomized into treatment groups based on body weight. On study day 0, 200 μg of anti-CD40 monoclonal antibody (BioXcell) was administered intraperitoneally to induce disease. Test articles were dosed orally BID (the exception was the known TYK2 inhibitor at 3 mpk, which was dosed QD, with vehicle administered as the second daily dose). Bodyweight was measured daily on study days 1-6.
# On day 7, the study was terminated; mice were anesthetized with Isoflurane and bled to exsanguination followed by cervical dislocation. The entire colon was removed, measured, and weighed. The plasma (for PK) and colon (for histology and cytokine measurements) samples were collected. Histopathology samples were evaluated for edema, inflammation (extent of macrophage, lymphocyte and polymorphonuclear (PMN) cell infiltration), gland loss, erosion, and hyperplasia.
# Overall efficacy of test articles is based on a ratio of colon weight to length, and colon histopathology (FIGS. 6A and 6B). Additional readouts of the model support activity of an exemplary compound in IBD (FIG. 6C-6I).
# [5] = Log D (octanol / phosphate buffer pH 7.4); type: physicochemical; settings: for logD at 1 h: octanol/potassium phosphate buffer, pH 7.4, octanol / potassium phosphate buffer pH 7.4
# Method: 10 μL of 10 mM stock solutions was placed into a 96-well plate, and 300 μL of octanol was subsequently added. The plate was sealed and agitated on a plate shaker for 5 minutes, followed by centrifugation at 2000 rpm for 5 minutes. The seal was removed and 600 μL of potassium phosphate buffer (pH 7.4) was added. The plate was sealed and the two phases were mixed by shaking vigorously on a plate shaker for 1 hour at 25° C. The plate was then centrifuged for 2000 rpm for 5 minutes and the seal was removed. 10 μL of water was aspirated out of the water phase samples from the water phase plate and mixed with 10 μL of water (1:2 dilution). 180 μL of 50% Ethanol was added into the water phase sample plate (1:10 dilution) to achieve a 1:20 dilution. 50 μL of water phase samples were then mixed with 100 μL of 50% Ethanol (containing IS) into the water phase sample plate to achieve a 1:60 dilution. 10 μL from the octanol phase (the upper phase) was transferred into a new 96-well plate and 190 μL of 50% Ethanol was added (1:20 dilution). 10 μL of the 1:20 diluted octanol samples was transferred into a new 96 deep-well plate and 390 μL of 50% Ethanol (1:40 dilution) was added to achieve a 1:800 dilution. 50 μL of the 1:800 diluted octanol samples were transferred into a new 96-well plate and 100 μL of 50% Ethanol with IS was added to achieve a 1:2400 dilution. The samples were subsequently analyzed with LCMS.
# [6] = Mouse colon distribution; type: in vivo; settings: colon / plasma, read-out: Colon/Plasma Ratio at 12 h
SMILES,Ligand Efficiency [1],Half-life (t1/2) [2],Maximum plasma concentration (Cmax) [2],Total systemic exposure (AUCinf) [2],IC50 [3] [nM],colon histopathology scores [4],colon weight-to-length ratio [4],"colon weight:length, efficacious dose ([4]; anti-CD40 IBD model) [mpk]",LogD ([5]; octanol / potassium phosphate buffer pH 7.4),logD at 1 h [5],Kp at 12 h ([6]; PO 10 mg/kg),Kp at 12 h ([6]; PO 50 mg/kg),Kp at 12 h ([6]; PO 200 mg/kg)
"C[C@@H](c1ccc(Nc2cc(Nc3ncccc3S(C)(=O)=O)ncn2)nc1)N1CC2(COC2)C1 [Compound 1, (S)—N^4-(5-(1-(2-oxa-6-azaspiro[3.3]heptan-6-yl)ethyl)pyridin-2-yl)-N^6-(3-(methylsulfonyl)pyridin-2-yl)pyrimidine-4,6-diamine]",††† (†††: >0.39),†† (††: 1.0-1.5),† (†: <800),†† (††: 1000-2000),116,inhibition,inhibition,200,1.33,~1.3,50,33,25
"C[C@@H](c1ccc(Nc2cc(Nc3ncc(F)cc3S(C)(=O)=O)ncn2)nc1)N1CC2(COC2)C1 [Compound 2, (S)—N^4-(5-(1-(2-oxa-6-azaspiro[3.3]heptan-6-yl)ethyl)pyridin-2-yl)-N^6-(5-fluoro-3-(methylsulfonyl)pyridin-2-yl)pyrimidine-4,6-diamine]",††† (†††: >0.39),†† (††: 1.0-1.5),††† (†††: >1500),††† (†††: >2000),64.3,inhibition,inhibition,,,~1.6,24,13,7.4
